Experimental data taken from patent publication US20050148495A1, “Methods and materials including for treating acne” (priority 2003, published 2005).
In brackets after ≈: the same amount, converted by molar mass. Where two headings read alike, the source gives them in different places. Non-standard residues stand in square brackets, D forms with d. Residues, ends and D or L forms follow the SMILES beside them. d1Nal = N[C@H](Cc1cccc2ccccc12)C(=O)O

Key:
Enterococcus = assay type: cell-based
Experimental: Control tubes containing only water or formulation buffer were prepared for each isolate. Initial growth controls were determined by removing 10 μL from the water control tube and diluting it by 100 fold. From this dilution, 10 μL was used for inoculation and for spreading over the surface onto Laked Blood Agar (LBA) (Anaerobe Systems, Morgan Hill, Calif.) plates. The tubes and plates were incubated in an anaerobic atmosphere at 37° C. for 48 h. […] MBC50 and 90 values represent where 50 and 90%, respectively, of the tested strain's MBC values are equal to or less than the indicated concentration.

[1] = Stability in aqueous solution as indicated by biological activity; assay type: physicochemical; settings: 4° C.
Experimental: (§1) In additional studies, a variety of formulations of XMP.629 were tested for stability under various temperatures, such as 25° C., 40° C., and 50° C., and at various time points, such as 0.5, 1, and 2 months.

[2] = test system: Salmonella typhimurium TA98, TA100, TA1535, TA1537 and Escherichia coli WP2uvrA; experiment: Ames test: Salmonella-Escherichia coli/mammalian-microsome reverse mutation assay; assay type: cell-based; settings: with and without S9
Experimental: XMP.629 was evaluated in an initial mutagenicity assay. In this Salmonella-Escherchia coli/mammalian-microsome reverse mutation assay, XMP.629 was evaluated for the ability to induce reverse mutations at the histidine locus in four tester strains of Salmonella-typhimurium (TA98, TA100, TA1535 and TA1537) and at the tryptophan locus in Escherichia coli tester strain, WP2uvrA, in the presence or absence of an exogenous metabolic activation system ([…]). The experimental materials, methods and procedures were based on those described by Ames et al., 1975 (Mutat. Res. 31; 347-364) and Green and Muriel, 1976 (Mutat. Res. 38: 3-32). The assay design was based on the OECD Guideline 471, updated and adopted Jul. 21, 1997. Based on the results of an initial dose rangefinding study, XMP.629 was evaluated using (a) four standard Salmonella tester strains with the rat hepatic S9 (microsomal) fraction at doses of 1.00, 3.33, 10.0, 33.3, 66.7 and 100 μg/plate, and without S9 at doses of 1.00, 3.33, 10.0, 25.0, 33.3 and 66.7 μg/plate; and (b) tester strain WP2uvrA with S9 at doses of 3.33, 10.0, 33.3, 100, 250 and 333 μg/plate and without S9 at doses of 1.00, 3.33, 10.0, 33.3, 66.7 and 100 μg/plate. XMP.629 was re-evaluated in an independent confirmatory experiment under similar conditions at lower doses.
In addition, the test article was freely soluble at all doses evaluated with and without S9. […]

[3] = test system: albino hairless guinea pigs Crl:IAF(HA)-hrBR (Outbred); experiment: Photosafety study: primary irritancy, phototoxicity, contact hypersensitivity, photoallergy; assay type: in vivo, guinea pig; settings: XMP.629 up to 10 mg/mL (1.0%)
Experimental: XMP.629 was evaluated for photoallergic potential administered topically to hairless guinea pigs. Primary irritancy, phototoxicity (photoirritancy) and contact hypersensitivity were also evaluated in these studies.
Male CrI:IaF(HA)-hrBR (Outbred) albino hairless guinea pigs were assigned to 7 groups, five guinea pigs per group as outlined below.
XMP.629 was formulated as a gel. The phototoxicity comparator article was 8-methoxypsoralen (8-MOP) in methanol at concentrations of 0.1, 0.3 and 1.0 mg/mL. The contact hypersensitivity and photoallergy comparator article was 3,3′,4′,5′-tetrachlorosalicy/anilide (TCSA) in acetone:corn oil (4:1, v/v) at challenge concentrations of 0 (Vehicle), 10, and 30 mg/mL. The reagent and reagent vehicle were Freund's complete adjuvant (FCA) and sterile water for injection, USP, respectively.
The formulation administration and ultraviolet radiation (UVR) exposure regimens for each group in the study were as follows.
For all phases of the study, test articles, test article vehicles, comparator articles and comparator article vehicles were administered (0.3 ml) using a Hilltop chamber affixed to the guinea pig with dental dam overlaid with a Velcro® wrap for approximately 2.0 hours per administration.
Primary irritancy potential of the test articles and test article vehicles was evaluated in Group 1 guinea pigs. Three chambers (one per formulation dosage) were attached to the dorsal skin along the midline. After the administration period the chamber patches were removed and the application sites were gently wiped.
Cutaneous phototoxicity potential of the test articles and test article vehicles was evaluated in Group 2 guinea pigs. Group 3 guinea pigs were used as a comparator group with elicitation of phototoxicity with 8-MOP. Three chambers (one per formulation dosage) were attached to the dorsal skin along the midline and occluded. After the administration period the chamber patches were removed and the application sites were gently wiped. After wiping, Group 2 and 3 guinea pigs were exposed to solar-simulated UVR for approximately 2.25 hours.
For induction of contact hypersensitivity and photoallergy, a nuchal area of skin approximately 2.5 cm^2 was defined by intradermal injections with a formulation of sterile water and FCA in guinea pigs in Groups 4 through 7 under isoflurane/oxygen anesthesia. This skin area was then tape stripped five times. Formulations were topically administered via chambers as described in the study design table using one chamber attached to the nuchal area. After removal of the chambers the application sites were gently wiped and the nuchal site of Group 6 and 7 guinea pigs was exposed to UVR as above. Appropriate procedures for guinea pigs (with the exception of injection with FCA) were repeated once daily on Days 3, 5, 8, 10 and 12 of the induction phase.
On Day 22 (contact hypersensitivity and photoallergy challenge), formulations were topically applied to appropriate sites on guinea pigs in Groups 4 through 7 as described above. Three chambers (one per formulation dosage) were attached to the dorsal skin along the midline and occluded. The chambers were then removed and the application sites were gently wiped. Guinea pigs in Groups 6 and 7 were then exposed to UVR as above.
Observations for general appearance and clinical signs were made weekly throughout the study. […] Body weights were recorded at initiation of dosing for each phase, weekly thereafter and at sacrifice. […]

Enterococcus hirae = Enterococcus hirae 9790
in vivo = settings: both, minipig, plasma, iv; for half-life: 0.05 or 2 mg/kg short IV infusion
physchem = settings: aqueous solution
Experimental: as §1
The solubility of XMP.629 acetate in various solvents was also evaluated.
Solubility studies were conducted using a variety of solvent systems and/or skin penetration enhancers.

Question: Which “MIC90, XMP.629 data reported as MBC values” (Enterococcus) does the source give for `CC(C)C[C@@H](NC(=O)[C@H](N)CCCCN)C(=O)N[C@H](Cc1ccccc1)C(=O)N[C@H](CCCNC(=N)N)C(=O)N[C@H](Cc1cccc2ccccc12)C(=O)N[C@H](CCC(N)=O)C(=O)N[C@H](C)C(=O)N[C@H](CCCCN)C(=O)N[C@H](Cc1cccc2ccccc12)C(N)=O` [XMP.629, NH2-lys-leu-phe-arg-(3-(1-naphthyl)-ala)-gln-ala-lys-(3-(1-naphthyl)-ala)-CONH2] (H-[dK][dL][dF][dR][d1Nal][dQ][dA][dK][d1Nal]-NH2) here?
Answer: The value was 4 µg/mL (≈ 3.12 µM).

Question: What about the “MIC90, XMP.629 data reported as MBC values” (Enterococcus; in FB (formulation buffer)) of the same compound?
Answer: Its value is 0.5 µg/mL (≈ 0.39 µM).

Question: And the “stable in aqueous solution as indicated by biological activity” value [1]?
Answer: Its value is “greater than 6 months”.

Question: And the “reverse mutation assay result” value [2]?
Answer: Its value is “negative”.

Question: And the contact hypersensitivity [3]?
Answer: Its contact hypersensitivity is “did not cause skin changes”.

Question: And the photoallergy [3]?
Answer: The photoallergy was “did not cause skin changes”.

Question: What about the phototoxicity ([3]; single topical administration and UVR) of the same compound?
Answer: The phototoxicity was “did not cause skin changes”.

Question: What about the primary irritation ([3]; single topical administration, 0.3 mL/skin site) of the same compound?
Answer: Its primary irritation is “did not cause skin changes”.

Question: What about the “Minimum Inhibitory Concentrations” value (Enterococcus hirae) of the same compound?
Answer: The value was 2.00 µg/mL.

Question: And the “Minimum Inhibitory Concentrations” value (Staphylococcus aureus; Staphylococcus aureus 6258)?
Answer: Its value is 2.00 µg/mL.

Question: What about the “Minimum Inhibitory Concentrations” value (Staphylococcus aureus; Staphylococcus aureus 11371) of the same compound?
Answer: The value was 2.00 µg/mL.

Question: What about the “Minimum Inhibitory Concentrations” value (Staphylococcus aureus; Staphylococcus aureus 12598) of the same compound?
Answer: The value was 2.00 µg/mL.

Question: And the “Minimum Inhibitory Concentrations” value (Staphylococcus aureus; Staphylococcus aureus 19636)?
Answer: Its value is 2.00 µg/mL.

Question: What about the “Minimum Inhibitory Concentrations” value (Staphylococcus aureus; Staphylococcus aureus BAA-38 (MRSA)) of the same compound?
Answer: Its value is 2.00 µg/mL.

Question: What about the “Minimum Inhibitory Concentrations” value (Streptococcus pneumoniae; Streptococcus pneumoniae 6303) of the same compound?
Answer: Its value is 8.00 µg/mL.

Question: And the “Minimum Inhibitory Concentrations” value (Streptococcus pneumoniae; Streptococcus pneumoniae 10031)?
Answer: Its value is 8.00 µg/mL.

Question: What about the “Minimum Inhibitory Concentrations” value (Streptococcus pneumoniae; Streptococcus pneumoniae 35088) of the same compound?
Answer: Its value is 2.00 µg/mL.

Question: And the “volume of the central compartment” value (0.05 mg/kg dose)?
Answer: The value was 203.2 mL/kg.

Question: What about the “decrease of plasma concentrations within 4 hours of dosing” value (intravenous) of the same compound?
Answer: Its value is “approximately 100 fold”.

Question: What about the Vd (in vivo; Sinclair mini-pig) of the same compound?
Answer: Its Vd is 0.067 to 0.102 L/kg.

Question: And the clearance (in vivo; Sinclair mini-pig)?
Answer: The clearance was 1.75 to 2.6 mL/min/kg.

Question: And the Vd (in vivo; Sinclair mini-pig, 0.05 mg/kg)?
Answer: Its Vd is 1.79 L/kg.

Question: What about the Vd (in vivo; Sinclair mini-pig, 0.2 mg/kg) of the same compound?
Answer: The Vd was 0.956 L/kg.

Question: And the half-life (in vivo; Sinclair mini-pig, beta half-life)?
Answer: The half-life was 1 to 1.3 h.

Question: What about the half-life (in vivo; Sinclair mini-pig, initial half-life) of the same compound?
Answer: The half-life was 0.03 to 0.9 h.

Question: And the half-life (in vivo; Sinclair mini-pig, terminal half-life)?
Answer: Its half-life is ~15 h.

Question: What about the MRT (in vivo; Sinclair, 0.05 mg/kg) of the same compound?
Answer: The MRT was 11.3 h.

Question: What about the clearance (in vivo; Sinclair, 0.05 mg/kg) of the same compound?
Answer: Its clearance is 2.59 mL/min/kg.

Question: What about the MRT (in vivo; Sinclair, 0.2 mg/kg) of the same compound?
Answer: Its MRT is 7.41 h.

Question: And the clearance (in vivo; Sinclair, 0.2 mg/kg)?
Answer: Its clearance is 1.74 mL/min/kg.

Question: What about the solubility (physchem) of the same compound?
Answer: Its solubility is ≥ 20 mg/mL.
